Melting point data for nine molecules are collected here from patent US20090005415A1, “1,2-Diarylimidazoles for Use as Cb1 Modulators” (priority 2005, published 2009).

Structures can show the parent of a compound that is named as a salt.

Broadly, the melting point is the temperature of the solid-liquid transition. `Cc1c(C(=O)NN2CCCCC2)nc(-c2ccc(Cl)cc2Cl)n1-c1ccc(OS(=O)(=O)CCC(F)(F)F)cc1` (as salt: hydrochloride) [Example 8, 3,3,3-Trifluoro-propane-1-sulfonic acid 4-[2-(2,4-dichloro-phenyl)-5-methyl-4-(piperidin-1-ylcarbamoyl)-imidazol-1-yl]-phenyl ester] showed a melting point of 183 to 186 °C.
`Cc1c(C(=O)NN2CCCCC2)nc(-c2ccc(Cl)cc2Cl)n1-c1ccc(OS(=O)(=O)c2cccs2)cc1` (as salt: hydrochloride) [Example 7, Thiophene-2-sulfonic acid 4-[2-(2,4-dichloro-phenyl)-5-methyl-4-(piperidin-1-ylcarbamoyl)-imidazol-1-yl]phenyl ester] had a melting point of 107 to 112 °C.
For the molecule `Cc1c(C(=O)NN2CCCCC2)nc(-c2ccc(Cl)cc2Cl)n1-c1ccc(OS(=O)(=O)c2ccc(Cl)s2)cc1` (as salt: hydrochloride) [Example 5, 5-Chloro-thiophene-2-sulfonic acid 4-[2-(2,4-dichloro-phenyl)-5-methyl-4-(piperidin-1-ylcarbamoyl)-imidazol-1-yl]-phenyl ester], the melting point fell in the range of 112 to 118 °C.
With `CCCS(=O)(=O)Oc1ccc(-n2c(-c3ccc(Cl)cc3Cl)nc(C(=O)NN3CCCCC3)c2C)cc1` (as salt: hydrochloride) [Example 9, Propane-1-sulfonic acid 4-[2-(2,4-dichloro-phenyl)-5-methyl-4-(piperidin-1-ylcarbamoyl)-imidazol-1-yl]-phenyl ester], the melting point is 126 to 133 °C.
The same measure for `Cc1c(C(=O)NN2CCCCC2)nc(-c2ccc(Cl)cc2Cl)n1-c1ccc(OCc2ccccc2)cc1` (as salt: hydrochloride) [Example 1, 1-(4-Benzyloxy-phenyl)-2-(2,4-dichloro-phenyl)-5-methyl-1H-imidazole-4-carboxylic acid piperidin-1-ylamide]: 195 to 198 °C; for `Cc1c(C(=O)NN2CCCCC2)nc(-c2ccc(Cl)cc2Cl)n1-c1ccc(OS(=O)(=O)CCCC(F)(F)F)cc1` (as salt: hydrochloride) [Example 3, 4,4,4-Trifluoro-butane-1-sulfonic acid 4-[2-(2,4-dichloro-phenyl)-5-methyl-4-(piperidin-1-ylcarbamoyl)-imidazol-1-yl]-phenyl ester]: 113 to 118 °C.
The result for `Cc1c(C(=O)NN2CCCCC2)nc(-c2ccc(Cl)cc2Cl)n1-c1ccc(OS(=O)(=O)CCC(C)(C)C)cc1` (as salt: hydrochloride) [Example 6, 3,3-Dimethyl-butane-1-sulfonic acid 4-[2-(2,4-dichloro-phenyl)-5-methyl-4-(piperidin-1-ylcarbamoyl)-imidazol-1-yl]-phenyl ester] reads 152 to 156 °C; that for `Cc1c(C(=O)NN2CCCCC2)nc(-c2ccc(Cl)cc2Cl)n1-c1ccc(OS(=O)(=O)c2cccnc2)cc1` (as salt: hydrochloride) [Example 4, Pyridine-3-sulfonic acid 4-[2-(2,4-dichloro-phenyl)-5-methyl-4-(piperidin-1-ylcarbamoyl)-imidazol-1-yl]-phenyl ester], 205 to 209 °C; that for `CCS(=O)(=O)Oc1ccc(-n2c(-c3ccc(Cl)cc3Cl)nc(C(=O)NN3CCCCC3)c2C)cc1` (as salt: hydrochloride) [Example 2, Ethanesulfonic acid 4-[2-(2,4-dichloro-phenyl)-5-methyl-4-(piperidin-1-ylcarbamoyl)-imidazol-1-yl]-phenyl ester], 94 to 101 °C.
